“Also recorded” adds a separate entry of the source. Read-outs that look alike come from different tables or passages of the source.
Assays:
tubulin [1] = assay: radiolabeled GTP binding to tubulin / nucleotide exchange on tubulin
Source text: For radiolabeled GTP binding to tubulin, the same drug concentrations inhibited the reaction by 17% and 51% with halistatin 2.

tubulin [2] = assay: binding of radiolabeled vinblastine to tubulin
NCI-H322M = assay: cells; type: cell-based; conditions: Homo sapiens
A498 = assay: NCI human tumor in vitro primary screen; type: cell-based; conditions: renal cancer
Source text: (§1) Only two hundred years ago, many diseases ravaged humankind. Many of these diseases now have been controlled or eradicated. In the development of the means to treat or control these diseases, work with the appropriate common experimental animals was of critical importance. With the various types of cancers, and with the HIV virus, such work is presently ongoing. The research for the treatment of various types of cancer is coordinated in the United States by the National Cancer Institute (NCI). NCI, as a government entity, has been charged with assisting anti-cancer research. To establish whether a substance has anti cancer activity, NCI has established a variety of protocols, one of which involves testing the candidate substance against a cell line panel containing 60 human tumor cell lines. This protocol has been verified and is generally accepted throughout the scientific community. This protocol and the established statistical means of evaluating the results obtained therefrom have been fully described in the literature. See Principles & Practice of Oncology PPO Updates, Volume 3, Number 10, Oct. 1989, by Michael R. Boyd, M.D., Ph.D., for an indepth description of the test protocol. The statistical analysis is explained in "Display and Analysis of Patterns of Differential Activity of Drugs Against Human Tumor Cell Lines: Development of Means Graph and COMPARE Algorithm" Journal of the National Cancer Institute Reports Vol. 81, No. 14, Pg. 1088, Jul. 14, 1989, by K. D. Paull et al. Both of these references are incorporated herein by this reference thereto.
(§2) Biological Testing; Data Display and Analysis; Screening Data Summary. Freshly isolated halistatin 2 was tested in the NCI's human tumor, disease-oriented in vitro primary screen, and data calculations performed. Table 3 is a composite prepared from mean graphs constructed from the averaged GI50 values from quadruplicate screenings of Halistatin 2.

SK-MEL-2 = assay: NCI human tumor in vitro primary screen; type: cell-based; conditions: melanoma
Source text: as §1, §2

UACC-62 = assay: NCI human tumor in vitro primary screen; type: cell-based; conditions: melanoma
Source text: as §1, §2

U251 = assay: NCI human tumor in vitro primary screen; type: cell-based; conditions: U-251, CNS cancer
Source text: as §1, §2

UACC-257 = assay: NCI human tumor in vitro primary screen; type: cell-based; conditions: melanoma
Source text: as §1, §2

KM12 = assay: NCI human tumor in vitro primary screen; type: cell-based; conditions: colon cancer
Source text: as §1, §2

SK-MEL-5 = assay: NCI human tumor in vitro primary screen; type: cell-based; conditions: melanoma
Source text: as §1, §2

SNB-75 = assay: NCI human tumor in vitro primary screen; type: cell-based; conditions: CNS cancer
Source text: as §1, §2

OVCAR-5 = assay: NCI human tumor in vitro primary screen; type: cell-based; conditions: ovarian cancer
Source text: as §1, §2

HOP-62 = assay: NCI human tumor in vitro primary screen; type: cell-based; conditions: non-small cell lung cancer
Source text: as §1, §2

HCT-15 = assay: NCI human tumor in vitro primary screen; type: cell-based; conditions: colon cancer
Source text: as §1, §2

NCI-H460 = assay: NCI human tumor in vitro primary screen; type: cell-based
Source text: as §1, §2

[3] = system: P388 lymphocytic leukemia; assay: P388 lymphocytic leukemia in vivo (NCI protocol); conditions: 40 μg/kg host body weight, BDF mice
Protocol: When BDF, mice were treated with 40 μg/kg host body weight of halistatin 2.

[4] = system: L1210 murine leukemia cells; assay: mitotic index (accumulation of cells arrested in mitosis); type: cell-based; conditions: at cytotoxic concentrations
[5] = read-out: Log10 GI50 (converted)
[6] = read-out: averaged negative log10 GI50 (converted)
[7] = read-out: Log10 TGI (converted)

With C=C1CC2CCC34CC5OC6C(O3)C3OC(CCC3OC6(O)C5O4)CC(=O)OC3C(CC4OC(CCC1O2)CC(C)C4=C)OC1CC2OC4(CC2OC1C3C)CC1OC2(CC(C)C3OC5CC(C(O)CO)OC5CC3O2)CC(C)C1O4 (centres unmarked) [halistatin 2] the “inhibition of nucleotide exchange on tubulin (in words)” value (tubulin [1]) was “inhibit nucleotide exchange on tubulin”, the “inhibition of radiolabeled GTP binding to tubulin (in words)” value (tubulin [1]) was “inhibited the binding of radiolabeled vinblastine and GTP to tubulin” and the “inhibition of radiolabeled GTP binding to tubulin” value (tubulin [1]; 5 μM) was 17%. For the same compound, the “inhibition of radiolabeled GTP binding to tubulin” value (tubulin [1]; 10 μM) was 51%, the “inhibition of nucleotide exchange, comparison (in words)” value (tubulin [1]; 5 and 10 μM, comparator not given) was “superior as an inhibitor of nucleotide exchange” and the “inhibition of radiolabeled vinblastine binding to tubulin (in words)” value (tubulin [2]) was “inhibited the binding of radiolabeled vinblastine and GTP to tubulin”. The “type of inhibition of vinblastine binding (in words)” value (tubulin [2]) was “noncompetitive inhibitor”, the “inhibition of radiolabeled vinblastine binding to tubulin” value (tubulin [2]; 5 μM) was 51% and the “inhibition of radiolabeled vinblastine binding to tubulin” value (tubulin [2]; 10 μM) was 75%. For the same compound, the GI50 (NCI-H322M; [5]) was 3.02 nM, the IC (TGI) (NCI-H322M; read-out: Log10 TGI) was 10 nM and the GI50 (NCI-H322M; [6]) was 3.02 nM. It also gave a GI50 (A498; [5]) of 1.82 nM, an IC (TGI) (A498; [7]) of 10 nM and a GI50 (A498; [6]) of 1.82 nM. It also gave a GI50 (SK-MEL-2; [5]) of 0.309 nM, an IC (TGI) (SK-MEL-2; [7]) of 4.57 nM and a GI50 (SK-MEL-2; [6]) of 0.309 nM. The GI50 (UACC-62; [5]) was 0.339 nM, the IC (TGI) (UACC-62; [7]) was 10 nM and the GI50 (UACC-62; [6]) was 0.339 nM. The GI50 (U251; [5]) was 0.479 nM, the IC (TGI) (U251; [7]) was 9.33 nM and the GI50 (U251; [6]) was 0.479 nM. For the same compound, the GI50 (UACC-257; [5]) was 2.29 nM, the IC (TGI) (UACC-257; [7]) was 10 nM and the GI50 (UACC-257; [6]) was 2.29 nM. The GI50 (KM12; [5]) was 0.537 nM, the IC (TGI) (KM12; [7]) was 10 nM and the GI50 (KM12; [6]) was 0.537 nM. The GI50 (SK-MEL-5; [5]) was 0.182 nM, the IC (TGI) (SK-MEL-5; [7]) was 1.82 nM and the GI50 (SK-MEL-5; [6]) was 0.182 nM. It also gave a GI50 (SNB-75; [5]) of 0.269 nM, an IC (TGI) (SNB-75; [7]) of 10 nM and a GI50 (SNB-75; [6]) of 0.269 nM. For the same compound, the GI50 (OVCAR-5; [5]) was 1.82 nM, the IC (TGI) (OVCAR-5; [7]) was 10 nM and the GI50 (OVCAR-5; [6]) was 1.82 nM. For the same compound, the GI50 (HOP-62; [5]) was 0.692 nM, the IC (TGI) (HOP-62; [7]) was 7.59 nM and the GI50 (HOP-62; [6]) was 0.692 nM. For the same compound, the GI50 (HCT-15; [5]) was 5.5 nM, the IC (TGI) (HCT-15; [7]) was 10 nM and the GI50 (HCT-15; [6]) was 5.5 nM. For the same compound, the GI50 (NCI-H460; NCl-H460, non-small cell lung cancer, read-out: Log10 GI50 (converted)) was 0.38 nM, the IC (TGI) (NCI-H460; NCl-H460, non-small cell lung cancer, read-out: Log10 TGI (converted)) was 6.76 nM and the GI50 (NCI-H460; non-small cell lung cancer, read-out: averaged negative log10 GI50 (converted)) was 0.38 nM. For the same compound, the cure rate [3] was 18%, the “life extension of those not cured” value [3] was 220% and the survival rate [3] was 100%. For the same compound, the “mitotic arrest / rise in mitotic index (in words)” value [4] was “caused a significant rise in the mitotic index; also recorded: caused the accumulation of cells arrested in mitosis” and the mitotic index [4] was ≤ 20%.
